Measurements published in patent US20030161862A1, “Bacterial growth regulators or inhibitors with the use of 1,5-d-anhydrofructose” (priority 2000, published 2003).
“Also recorded” adds a separate entry of the source.

Experiments:
Assay type in all cases: cell-based
[1] = tested on: Bacillus cereus IFO 3131; test: growth suppression/inhibition on agar media, colonies observed visually
Method: (§1) Under the circumstances, influences on growth of a variety of bacteria in the presence of 1,5-D-anhydrofructose with or without sodium ascorbate which is a typical antioxidant to be used in food and beverages were examined.
(§2) After the bacterial strains were suspended in physiological salt solutions, they were inoculated into agar media (each containing 0.25% of yeast extract, 0.5% of polypeptone, […]) with platinum loops and then cultured at 37° C. until colonies were formed. Thereafter, the bacteria were inoculated, with sterilized toothpicks, from the colonies into agar media of the above composition each of which contained 1.0% of sodium ascorbate and 1.0% of 1,5-D-anhydrofructose, and into agar media of the above composition each of which contained 1.0% of 1,5-D-anhydrofructose and no sodium ascorbate. For controls, culture media of the same composition each of which contained neither sodium ascorbate nor 1,5-D-anhydrofructose and culture media of the same composition each of which contained 1.0% of sodium ascorbate and no 1,5-D-anhydrofructose were used. Abilities of sodium ascorbate and 1,5-D-anhydrofructose to suppress/inhibit growth of the bacteria were evaluated by visually observing the colonies formed after the bacteria were cultured at 37° C. for one night.
(§3) The substances were used at concentrations shown in the legend of Table 4.
(§4) Those cultured in the absence of the chelating agents, 1,5-D-anhydrofructose, sodium ascorbate and sodium erythorbate were taken as controls. As for an agar medium, a method for inoculating the bacteria, conditions for culturing the bacteria, and a method for evaluating a growth suppressing/inhibiting ability, they are the same as those used in the tests whose results are shown in Tables 2 and 3.

[2] = tested on: Escherichia coli IFO 3301; test: as above
Method: as §1, §2, §3, §4

[3] = tested on: Lactobacillus casei ATCC 393; test: as above
Method: as §1, §2, §3, §4

[4] = tested on: Proteus vulgaris IFO 3851; test: as above
Method: as §1, §2, §3, §4

[5] = tested on: Bacillus subtillis IFO 3009; test: as above; details: agar medium pH 6.5, 37° C. one night
Description: as §1
(§5) After the bacterial strains were suspended in physiological salt solutions, they were inoculated into agar media (each containing 0.25% of yeast extract, 0.5% of polypeptone, 1.0% of glucose and 1.5% of soft agar and having a pH of 6.5) with platinum loops and then cultured at 37° C. until colonies were formed. Thereafter, the bacteria were inoculated, with sterilized toothpicks, from the colonies into agar media of the above composition each of which contained 1.0% of sodium ascorbate and 1.0% of 1,5-D-anhydrofructose, and into agar media of the above composition each of which contained 1.0% of 1,5-D-anhydrofructose and no sodium ascorbate. For controls, culture media of the same composition each of which contained neither sodium ascorbate nor 1,5-D-anhydrofructose and culture media of the same composition each of which contained 1.0% of sodium ascorbate and no 1,5-D-anhydrofructose were used. Abilities of sodium ascorbate and 1,5-D-anhydrofructose to suppress/inhibit growth of the bacteria were evaluated by visually observing the colonies formed after the bacteria were cultured at 37° C. for one night.
as §3, §4

[6] = tested on: Enterobactor cloacae JCM 1232; test: as above; details: agar medium pH 6.5, 37° C. one night
Description: as §1, §5, §3, §4

[7] = tested on: Pseudomonas aeruginosa IFO 12689; test: as above; details: agar medium pH 6.5, 37° C. one night
Description: as §1, §5, §3, §4

[8] = tested on: Streptococcus eqinus ATCC 9812; test: as above; details: agar medium pH 6.5, 37° C. one night
Description: as §1, §5, §3, §4

[9] = tested on: gram-positive bacteria; test: minimum growth inhibitory concentration / growth inhibition in agar media; details: for growth inhibitory effect against gram-positive bacteria: 0.5%, used independently, agar medium pH 7.0
Method: (§6) When a variety of bacteria are cultured in agar media in the presence of 1,5-D-anhydrofructose without any of an antioxidant or a chelating agent, a minimum growth inhibitory concentration of 1,5-D-anhydrofructose is 3.0 to 5.0% for gram-negative bacteria and 1.0 to 3.0% for gram-positive bacteria. Under the circumstances, influences on growth of a variety of bacteria in the presence of 1,5-D-anhydrofructose with or without sodium ascorbate which is a typical antioxidant to be used in food and beverages were examined.
as §2, §3

[10] = tested on: Pseudomonas aeruginosa IFO 12689; test: growth suppression/inhibition on agar media, colonies observed visually; details: agar medium pH 7.0, 37° C. one night; BHA 0.5%, BHT 0.5%, 1,5-D-anhydrofructose 1%
[11] = tested on: Enterobactor cloacae JCM 1232; test: as above; details: agar medium pH 7.0, 37° C. one night; BHA 0.5%, BHT 0.5%, 1,5-D-anhydrofructose 1%
[12] = tested on: Bacillus subtillis IFO 3009; test: as above; details: agar medium pH 7.0, 37° C. one night; BHA 0.5%, BHT 0.5%, 1,5-D-anhydrofructose 1%
[13] = tested on: Streptococcus eqinus ATCC 9812; test: as above; details: agar medium pH 7.0, 37° C. one night; BHA 0.5%, BHT 0.5%, 1,5-D-anhydrofructose 1%
[14] = tested on: a variety of bacteria (strains of Table 1); test: growth suppression on agar media, summary statements for all tested bacteria; details: for growth suppressing ability when solely used: solely used at the concentrations of the tests (sodium ascorbate 1.0%, sodium erythorbate 0.2%, chelating agents 0.2-0.5%); for effect of enhancing the growth suppressing effect of 1,5-D-anhydrofructose: co-presence with 1,5-D-anhydrofructose, no data shown
Method: as §6, §5, §4

[15] = agar medium pH 6.5, 37° C. one night, 1,5-D-anhydrofructose 1%, sodium citrate 0.5%, sodium polyphosphate 0.2%, sodium malate 0.5%, sodium gluconate 0.5%, sodium tartrate 0.5%, sodium ascorbate 1%, sodium erythorbate 0.2%
[16] = agar medium pH 6.5, 37° C. one night, sodium ascorbate 1%, 1,5-D-anhydrofructose 1%
[17] = agar medium pH 6.5, 37° C. one night, sodium erythorbate 0.2%, 1,5-D-anhydrofructose 1%
[18] = agar medium pH 7.0, 37° C. one night, BHA 0.5%, BHT 0.5%, 1,5-D-anhydrofructose 1%
[19] = 1,5-D-anhydrofructose 1%, sodium citrate 0.5%, sodium polyphosphate 0.2%, sodium malate 0.5%, sodium gluconate 0.5%, sodium tartrate 0.5%, sodium ascorbate 1%, sodium erythorbate 0.2%
[20] = sodium ascorbate 1%, 1,5-D-anhydrofructose 1%
[21] = sodium erythorbate 0.2%, 1,5-D-anhydrofructose 1%

## O=C1CO[C@H](CO)[C@@H](O)[C@@H]1O [1,5-D-anhydrofructose]
[1]; [15]
  condition of the colonies: ±
[1]; [16]
  condition of the colonies: ±
[1]; [17]
  condition of the colonies: ±
[1]; [18]
  condition of the colonies: ±
[2]; [15]
  condition of the colonies: +
[2]; [16]
  condition of the colonies: +
[2]; [17]
  condition of the colonies: +
[2]; [18]
  condition of the colonies: +
[3]; [15]
  condition of the colonies: ±
[3]; [16]
  condition of the colonies: ±
[3]; [17]
  condition of the colonies: ±
[3]; [18]
  condition of the colonies: ±
[4]; [15]
  condition of the colonies: ±
[4]; [16]
  condition of the colonies: ±
[4]; [17]
  condition of the colonies: ±
[4]; [18]
  condition of the colonies: ±
[5]; [19]
  condition of the colonies: +
[5]; [20]
  condition of the colonies: +
[5]; [21]
  condition of the colonies: +
[6]; [19]
  condition of the colonies: +
[6]; [20]
  condition of the colonies: +
[6]; [21]
  condition of the colonies: +
[7]; [19]
  condition of the colonies: +
[7]; [20]
  condition of the colonies: +
[7]; [21]
  condition of the colonies: +
[8]; [19]
  condition of the colonies: ±
[8]; [20]
  condition of the colonies: ±
[8]; [21]
  condition of the colonies: ±
[9]; agar media, without any antioxidant or chelating agent
  minimum growth inhibitory concentration: 1.0 to 3.0%
[10]
  condition of the colonies: +
[11]
  condition of the colonies: +
[12]
  condition of the colonies: +
[13]
  condition of the colonies: ±

## COc1ccc(O)c(C(C)(C)C)c1 [BHA, butylhydroxyanisol]
[1]; [18]
  condition of the colonies: −
[2]; [18]
  condition of the colonies: −
[3]; [18]
  condition of the colonies: −
[4]; [18]
  condition of the colonies: −
[9]
  growth inhibitory effect against gram-positive bacteria: exhibited a growth inhibitory effect against all of the examined gram-positive bacteria
[10]
  condition of the colonies: +
[11]
  condition of the colonies: ±
[12]
  condition of the colonies: −
[13]
  condition of the colonies: −

## Cc1cc(C(C)(C)C)c(O)c(C(C)(C)C)c1 [BHT, dibutylhydroxytoluene]
[1]; [18]
  condition of the colonies: −
[2]; [18]
  condition of the colonies: +
[3]; [18]
  condition of the colonies: −
[4]; [18]
  condition of the colonies: ±
[9]
  growth inhibitory effect against gram-positive bacteria: exhibited a growth inhibitory effect against all of the examined gram-positive bacteria
[10]
  condition of the colonies: +
[11]
  condition of the colonies: +
[12]
  condition of the colonies: −
[13]
  condition of the colonies: −

## O=C1O[C@H]([C@@H](O)CO)C([O-])=C1O.[Na+] [sodium ascorbate]
[1]; [15]
  condition of the colonies: +
[1]; [16]
  condition of the colonies: +
[2]; [15]
  condition of the colonies: +
[2]; [16]
  condition of the colonies: +
[3]; [15]
  condition of the colonies: +
[3]; [16]
  condition of the colonies: +
[4]; [15]
  condition of the colonies: +
[4]; [16]
  condition of the colonies: +
[5]; [19]
  condition of the colonies: +
[5]; [20]
  condition of the colonies: +
[6]; [19]
  condition of the colonies: +
[6]; [20]
  condition of the colonies: +
[7]; [19]
  condition of the colonies: +
[7]; [20]
  condition of the colonies: +
[8]; [19]
  condition of the colonies: +
[8]; [20]
  condition of the colonies: +
[14]
  growth suppressing ability when solely used: does not have a growth suppressing ability against any of the bacteria; also recorded: do not inhibit growth of the bacteria

## O=C([O-])CC(O)(CC(=O)[O-])C(=O)[O-].[Na+].[Na+].[Na+] [sodium citrate]
[1]; [15]
  condition of the colonies: +
[2]; [15]
  condition of the colonies: +
[3]; [15]
  condition of the colonies: +
[4]; [15]
  condition of the colonies: +
[5]; [19]
  condition of the colonies: +
[6]; [19]
  condition of the colonies: +
[7]; [19]
  condition of the colonies: +
[8]; [19]
  condition of the colonies: +

## O=C1O[C@H]([C@H](O)CO)C([O-])=C1O.[Na+] [sodium erythorbate]
[1]; [15]
  condition of the colonies: +
[1]; [17]
  condition of the colonies: +
[2]; [15]
  condition of the colonies: +
[2]; [17]
  condition of the colonies: +
[3]; [15]
  condition of the colonies: +
[3]; [17]
  condition of the colonies: +
[4]; [15]
  condition of the colonies: +
[4]; [17]
  condition of the colonies: +
[5]; [19]
  condition of the colonies: +
[5]; [21]
  condition of the colonies: +
[6]; [19]
  condition of the colonies: +
[6]; [21]
  condition of the colonies: +
[7]; [19]
  condition of the colonies: +
[7]; [21]
  condition of the colonies: +
[8]; [19]
  condition of the colonies: +
[8]; [21]
  condition of the colonies: +
[14]
  growth suppressing ability when solely used: do not inhibit growth of the bacteria

## O=C([O-])[C@H](O)[C@@H](O)[C@H](O)[C@H](O)CO.[Na+] [sodium gluconate]
[1]; [15]
  condition of the colonies: +
[2]; [15]
  condition of the colonies: +
[3]; [15]
  condition of the colonies: +
[4]; [15]
  condition of the colonies: +
[5]; [19]
  condition of the colonies: +
[6]; [19]
  condition of the colonies: +
[7]; [19]
  condition of the colonies: +
[8]; [19]
  condition of the colonies: +

## O=C([O-])CC(O)C(=O)[O-].[Na+].[Na+] (stereo not shown) [sodium malate]
[1]; [15]
  condition of the colonies: +
[2]; [15]
  condition of the colonies: +
[3]; [15]
  condition of the colonies: +
[4]; [15]
  condition of the colonies: +
[5]; [19]
  condition of the colonies: +
[6]; [19]
  condition of the colonies: +
[7]; [19]
  condition of the colonies: +
[8]; [19]
  condition of the colonies: +

## O=C([O-])C(O)C(O)C(=O)[O-].[Na+].[Na+] (stereo not shown) [sodium tartrate]
[1]; [15]
  condition of the colonies: +
[2]; [15]
  condition of the colonies: +
[3]; [15]
  condition of the colonies: +
[4]; [15]
  condition of the colonies: +
[5]; [19]
  condition of the colonies: +
[6]; [19]
  condition of the colonies: +
[7]; [19]
  condition of the colonies: +
[8]; [19]
  condition of the colonies: +

## catechin
[14]
  effect of enhancing the growth suppressing effect of 1,5-D-anhydrofructose: exhibit the above effect

## sodium polyphosphate
[1]; [15]
  condition of the colonies: +
[2]; [15]
  condition of the colonies: +
[3]; [15]
  condition of the colonies: +
[4]; [15]
  condition of the colonies: +
[5]; [19]
  condition of the colonies: +
[6]; [19]
  condition of the colonies: +
[7]; [19]
  condition of the colonies: +
[8]; [19]
  condition of the colonies: +

## tocopherol
[14]
  effect of enhancing the growth suppressing effect of 1,5-D-anhydrofructose: exhibit the above effect
